Key:
[1] = test system: male and female Wistar rats; assay: Experiment 2: chronic treatment of male and female rats, 5-6 weeks; format: in vivo, rat; settings: for Food intake: n = 5; for testosterone: compared to the vehicle
Method: Twenty-five male and 25 female Wistar rats, 7-8 weeks of age, were randomly assigned to groups of five animals, respectively, for treatment with vehicle only (V), estradiol (E), (±)-Z-BDDA, (+)-Z-BDDA, or (−)-Z-BDDA. Each animal in group V received a daily 0.1 cc injection of a 10% ethanol-90% olive oil solution; the other treatments received their respective compound as a daily 0.1 cc injection, e.g., 2.5 μg of compound/g of body weight, in a 10% ethanol-90% olive oil solution. A temperature of 21° C. and an artificial 12-h light-dark cycle were maintained in the animal room. All animals were maintained on standard chow in powdered form, the males for five weeks and the females for six weeks, then sacrificed after an overnight fast under i.p. pentobarbital anesthesia (50 mg/kg). Animal weight and food intake were measured weekly during the study and subsequent FER values were determined. During sacrifice, blood was collected (via cardiac puncture) for glucose, luteinizing hormone, prolactin and testosterone measurements. The amounts of luteinizing hormone, prolactin and testosterone were measured to help elucidate the target tissue of the respective compounds in male and female rats. Immediately following sacrifice the fat pads and reproductive organs were removed and weighed.
Experiments 1 and 2 employed a randomized design. All data were analyzed by one-way analysis of variance (ANOVA,)and post-hoc comparisons were made with Tukey pairwise comparisons test. Significance was confirmed at p≦0.05 (SYSTAT 7.0, SPSS INC., 1997), and all values are reported as means±standard error of the mean.

[2] = test system: dialyzed LDL; assay: Oxidized LDL lag time assay (antioxidant capacity); design: species or system human; settings: 3 μM Cu2SO4, drugs at 10^−4, 10^−5, 10^−6, and 10^−7 M
Method: Experiments were carried out on dialyzed LDL collected from four fasted persons. The LDL was used within 10 days of dialysis. The oxidizing agent was 3 μM […]; phosphate buffered saline was used to control pH, and all drugs were dissolved in ethanol; final concentrations of each drug in the assays were 10^−4, 10^−5, 10^−6, and 10^−7 M. The combined results are shown in FIG. 6.

[3] = test system: primary porcine granulosa cells; assay: In situ apoptosis assay in primary porcine granulosa cells; format: cell-based; settings: for mean apoptosis (% area): 24 hr treatment, 0.1, 1 and 10 μM combined, serum-free MEM, controls 63.4% / 68.4%
Method: Porcine ovaries were obtained from local packing plants and transported to the laboratory on ice-cold Hank's balanced salt solution (HBSS). Each of the follicles was aspirated with an insulin syringe, and the follicular fluid was centrifuged at 3000 rpm and 4° C. for 15 min. The supernatant was poured off and the cells were washed in 5 mls of cold HBSS and centrifuged for another 10 min. The cells were again resuspended in HBSS, and the number of viable cells counted under the microscope using a hematocytometer. Once the number of cells was determined, the cells were centrifuged again for 10 min. and resuspended in the appropriate volume of Eagle's minimum essential media (MEM) containing 10% fetal bovine serum (FBS) and antibiotic/antimycotics. The cells were plated at 250,000 per well in 8 chamber microscope slides (Nunc, Naperville, Ill.) which were pre-treated with poly-L-lysine for 10 min. The slides were incubated at 5% CO2/95% air at 37° C. Approximately 12 hours later, the medium was removed by vacuum and replaced with pre-warmed, serum-free MEM. Cells were then treated for 2-3 hrs with MEM only to wash out any estrogen effects from the serum (Winters et al. (1994) Biol. Reprod. 50 (Suppl. 1):113; Suttner et al. (1998) Biol. Reprod. 59 (Suppl.): (Accepted for publication). Following serum-free MEM treatment, cells were treated for 24 hr with (+) or (−) enantiomers of Z-BDDA or estradiol at 0. 1, 1, and 10 μM, or EtOH vehicle control in serum-free MEM. Cells were subsequently processed using an in situ apoptosis assay kit (Apotag-Plus In Situ Apoptosis Kit-Peroxidase, Edition 1.1., Oncor, Gaithersburg, Md., 1995) to study ovarian apoptosis (Suttner et al., 1998). The slides were washed in two changes of PBS for 5 min each, and then quenched in 2% hydrogen peroxide in methanol for 5 min. at room temperature. After pre-treatment with an equilibration buffer, 13 ul of Terminal deoxynucleotidyl Transferase (TdT) diluted with reaction buffer and distilled water were added, and the slides were incubated for 1 h at 37° C. in a humidified chamber. After this 1 h period, the slides were put in pre-warmed stop wash buffer in the incubator for 30 min to stop the reaction. Next, the slides were washed in three changes of PBS for 5 min. each, and the anti-digoxigenin peroxidase was placed on the slides for 30 min. in a humidified chamber at room temperature. […] The degree of apoptosis for the calorimetric apoptosis assay was quantified microscopically using an image analysis system (Optimas 5.23, Optimas Users Guide, 5th Edition, Redmond, Wash.). Ten measurements (captured images) were taken for each concentration based on a pre-determined grid. […] Percentage area of each color was then quantitated using the image analysis system. […]

[4] = female rats (uterus), 2.5 ug/g of body weight daily, six weeks, mean ± SEM
[5] = female rats, 2.5 ug/g of body weight daily, six weeks, mean ± SEM
[6] = male rats (testis), 2.5 ug/g of body weight daily, five weeks, mean ± SEM
[7] = male rats, 2.5 ug/g of body weight daily, five weeks, mean ± SEM

Structure (SMILES) | Uterus/testis weight (g) [1, 4] | Blood glucose [1, 5] [mg/dL] | FER (food efficiency ratio) [1, 5] | Food intake [1, 5] [g] | Uterus/testis weight (g) [1, 6] | testosterone ([1]; male rats, 2.5 μg/g daily) | Blood glucose [1, 7] [mg/dL] | FER (food efficiency ratio) [1, 7] | Prostate weight [1, 7] [g] | Food intake [1, 7] [g] | body weight (percent weight change) ([1]; male rats, both experiments (FIGS. 2 and 3), 2.5 μg/g daily) | antioxidant activity (shift in lag time of LDL oxidation) [2] | percent apoptosis ([3]; 24 hr treatment at 10 μM) [%] | mean apoptosis (% area) [3] [%] | Blood glucose (mg/dl) [1, 7] | Prostate weight (g) [1, 7]
C[C@]12CCC3c4ccc(O)cc4CCC3[C@@H]1CCC2O (single isomer, unassigned; (+)) [estradiol, (+)-17β-estradiol, reference compound] | 4.83 ± 1.30^1 g | 100.80 ± 10.22 | 0.039 ± 0.004 | 699.6 ± 33.7 | 0.74 ± 0.04^1 g | significant (p<0.05) testosterone suppression | 108.00 ± 10.90 | 0.00 ± 0.01^1 | 0.06 ± 0.02 | 590.4 ± 47.7 | dramatic reduction in body weight | very little antioxidant activity | 23.8 | 46.5 |  | 
CC[C@H]1c2ccc3cc(O)ccc3c2CC[C@@]1(C)C(=O)O [(+)-Z-BDDA, (+)-Z-bisdehydrodoisynolic acid] | 4.02 ± 0.91^1 g | 89.60 ± 6.15 | 0.026 ± 0.008^1 | 693.6 ± 72.3 | 0.61 ± 0.02^1 g | significant (p<0.05) testosterone suppression |  | −0.02 ± 0.01^1 |  | 676.0 ± 33.2 |  | significant antioxidant activity |  | 61.1 | 94.00 ± 10.18^1 mg/dl | 0.02 ± 0.00^1 g

Reference: patent US6608111B1, “Method for treating or preventing prostatic conditions” (Southern Illinois University Office of Research, …, priority 1998, dated 2003)
